From paper PMC8100298, “Histone deacetylase inhibitor resminostat in combination with sorafenib counteracts platelet-mediated pro-tumoral effects in hepatocellular carcinoma” (Scientific Reports, 2021)
Like-named read-outs stand apart in the source and are kept apart here.

What was measured:
[1] = tested on: PLC/PRF/5 HCC cells; test: Intracellular flow cytometry (AcLys, H3K27Ac); format: cell-based; conditions: 1 µM or 3 µM, 24 hours (Fig. S1B)
Experimental: Supplemental Figures and Figure legends
Figure S1. Inhibition of cancer cell growth by the broad-spectrum HDACI resminostat
A. Inhibition of HDAC1 to 11 by resminostat determined by in vitro HDAC activity assays.
IC50 data from three independent experiments are shown as mean ± SD.
B. Intracellular flow cytometry using antibodies targeting acetyl lysine (AcLys) and the H3K27
acetylation mark (H3K27Ac). IgG isotype controls were used for each antibody. PLC/PRF/5
HCC cells were treated with vehicle control ( 0.1 % DMSO), 1 µM or 3 µM resminostat for 24
hours. For AcLys, the geometric mean fluore scence intensities (gMFI) are shown. For
H3K27Ac, the ratios of the gMFIs for H3K27Ac relative to Histone H3 are shown. D ata of
three technical replicates are presented as mean ± SD.
(1 picture or pasted object on this page, not shown here)
(100×, 78440; Thermo Scientific, Massachusetts, US). Following incubation for 1 h at 4°C,
The protein concentration of the
Fisher Scientific, Massachusetts, US ). Equal amounts of protein lysates and a pre-stained
US) and transferred to PVDF membranes. The membranes were probed using the relevant […]
secondary fluorescence labelled antibodies for 45 min in the dark at RT, washed twice in […]
cells were measured using the Miltenyi MACSQuant Analyser 10 (Miltenyi) and analysed with […]
counted in a Neubauer chamber before the required number of platelets was activated by […]

[2] = tested on: Hep3B2.1-7 human hepatic carcinoma; conditions: for Survival / Tumour weight, Mean: 21 days; for Tumour weight, Mean: SCID mice
Description: The orthotopic xenograft mouse model of Hep3B2.1–7 human hepatic carcinoma was previously established. Tumors were created by injection of 2.5 × 10^6 Hep3B2.1-7 cells (ATCC, RRID:CVCL_0326; Virginia, Manassas, USA) into the main lobe of the liver of anaesthetized female SCID mice (C.B-17-Igh-1bPrkdc(scid)). […] Treatments were continued for 21 days. Treatment of animals was ceased when the body weight dropped below 85% of that on entry of the study. Only mice culled at the termination date were used to determine the tumor weight. The experiment was conducted by vivoPharm pty Ltd (Bundoora, Australia) in accordance with the principles outlined in the “Australian Code of Practice for the Care and Use of Animals for Scientific Purposes”, 7th Edition, 2004 (National Health and Medical Research Council, Canberra, Australia). All procedures involving animals were reviewed and approved by the University of Adelaide Animal Ethics Committee. The study was carried out in compliance with the ARRIVE guidelines (http://www.nc3rs.org.uk/page.asp?id=1357). […]
invasion assay. The ODs of the invaded cells were normalized relative to ODs from tissue […]
Orthotopic xenograft mouse model
The orthotopic xenograft mouse model of Hep3B2.1-7 human hepatic carcinom a was previously established. The experiment was conducted by vivoPharm pty Ltd (Australia) in accordance with the principles outlined in the Australian Code of Practice for the Care and Use of Animals for Scientific Purposes, 7th Edition, 2004 (National Health and Medical Research Council). Procedures involving the care and use of animals in thi s study were reviewed and approved by the University of Adelaide Animal Ethics Committee. The study was carried out in compliance with the ARRIVE guidelines
(http://www.nc3rs.org.uk/page.asp?id=1357).
The animals were delivered to the test facility 1 1 days prior inoculation. On arrival, all animals received a detailed physical examination, including body weight measurement by the […]
technical staff. […] Each a nimal was identified by a transponder (Bar Code Data Systems Pty Ltd, Botany Bay, NSW, Australia) that could be scanned with a barcode reader (DataMars LabMax I). The transponder was implanted by subcutaneous injection between the shoulder blades while the mouse was under isoflurane-induced anaesthesia. The animals were housed in groups of six in micro-isolator cages (two cages per group). Each cage was clearly labelled with a cage card indicating study number, group, gender, and prescribed dose concentration and dose volume. The animals were kept in a controlled environment (targeted ranges: temperature 21 ± 3°C, humidity 30 -70%, 15 air changes per hour), with a light/dark cycle each of 12 hours, and under barrier (quarantine) conditions. Temperature and relative humidity were monitored continuously. All animals were subjected to the same environmental conditions. A standard certified commercial rodent diet (Rat and Mouse Cubes, Specialty Feeds Pty Ltd, Glen Forrest, WA, Australia) and tap water were provided to the animals ad libitum. Food supply was sterilized by autoclaving, and water […]
supply was sterilized by acidification with hydrochloric acid (pH 2.4-2.7) by Laboratory Animal Services, University of Adelaide (Adelaide, SA, Australia). Additional feed (a nimal seed, Magill Grain Store, Magill, SA, Australia), as well as wet standard feed was provided to all animals from Day 7 onwards, as a measure to minimize body w eight loss. The extent of adverse reaction was assessed during the study and mice were culled if severe adverse […]
The age range of the mice were 12-16 weeks at
Hep3B2.1-7 human hepatic carcinoma cells were sourced from the American Type Culture […]
Collection (ATCC; Virginia, USA).

**Q.** How did the “acetylation of histone mark H3K27” value [1] turn out when `CN(C)Cc1ccc(S(=O)(=O)n2ccc(/C=C/C(=O)NO)c2)cc1` [resminostat, Resminostat] was run?
**A.** hyperacetylation

**Q.** What about the “global acetylation level (AcLys)” value [1] of the same compound?
**A.** increase of the global acetylation level in HCC cells in a dose-dependent manner

**Q.** And the Survival ([2]; 15 mg/kg oral once daily)?
**A.** 10/12

**Q.** What about the “Tumour weight, Mean” value ([2]; 15 mg/kg oral once daily) of the same compound?
**A.** 2.55 g

**Q.** What about the Survival ([2]; 40 mg/kg oral once daily) of the same compound?
**A.** 10/12

**Q.** What about the “Tumour weight, Mean” value ([2]; 40 mg/kg oral once daily) of the same compound?
**A.** 1.83 g

**Q.** What about the “tumor weight compared to the vehicle control” value ([2]; daily resminostat 15 and 40 mg/kg, sorafenib 40 mg/kg, or combination (Fig. 1B)) of the same compound?
**A.** significantly reduced tumor weight
